For data set [1] the following is noted: 101 kPa, Liquid.
A short description of data set [2]: refractive index (Na D-line) (dimensionless). The note with it: 101.33 kPa, Liquid.

These results are taken from the NIST ThermoML archive (doi:10.1021/je049610v).

Several values for one entry are separate records, joined by “and”; a condition that tells them apart may be missing. Equal entries are not always repeated. Numbers after ± are expanded uncertainties.

Regarding `ClC(Cl)C(Cl)Cl` [1,1,2,2-tetrachloroethane], the values for the mass density in data set [1] (298.15 K), in data set [1] (303.15 K) and in data set [1] (308.15 K) were 1587.8 ± 3.5 kg/m3, 1580.6 ± 3.6 kg/m3 and 1573.3 ± 3.6 kg/m3, respectively. Also, the speed of sound in data set [1] (298.15 K) is 1153 ± 7 m/s. The viscosity in data set [1] (298.15 K) stood at 1.591 ± 0.049 mPa·s; in data set [1] (303.15 K), 1.471 ± 0.045 mPa·s; in data set [1] (308.15 K), 1.361 ± 0.042 mPa·s. Also, the refractive index turned out to be 1.4922 ± 0.0024 in data set [2] (298.15 K), 1.4894 ± 0.0024 in data set [2] (303.15 K) and 1.4865 ± 0.0024 in data set [2] (308.15 K).
As for `C1COCCO1` [1,4-dioxane], the mass density in data set [1] (298.15 K) was 1028.3 ± 2.1 kg/m3; in data set [1] (303.15 K), 1023.1 ± 2.2 kg/m3; in data set [1] (308.15 K), 1017.8 ± 2.2 kg/m3. In addition, the speed of sound in data set [1] (298.15 K) is 1345 ± 7 m/s. In addition, the viscosity in data set [1] (298.15 K) is recorded as 1.415 ± 0.044 mPa·s; in data set [1] (303.15 K) it was 1.171 ± 0.1 mPa·s; in data set [1] (308.15 K) it was 1.068 ± 0.034 mPa·s. Moreover, the values for the refractive index in data set [2] (298.15 K), in data set [2] (303.15 K) and in data set [2] (308.15 K) were 1.4181 ± 0.0024, 1.4176 ± 0.0024 and 1.4141 ± 0.0024, respectively.
Turning to `OCCCl` [1-chloro-2-hydroxyethane], the mass density in data set [1] (298.15 K) stood at 1200.9 ± 2.5 kg/m3; in data set [1] (303.15 K), 1192.5 ± 2.6 kg/m3; in data set [1] (308.15 K), 1187.1 ± 2.7 kg/m3. The speed of sound in data set [1] (298.15 K) amounted to 1358 ± 8 m/s. The viscosity in data set [1] (298.15 K) is listed as 3.104 ± 0.091 mPa·s; in data set [1] (303.15 K), 2.669 ± 0.079 mPa·s; in data set [1] (308.15 K) it was 2.347 ± 0.07 mPa·s. Also, the refractive index in data set [2] (298.15 K) was 1.4411 ± 0.0024; in data set [2] (303.15 K), 1.438 ± 0.0024; in data set [2] (308.15 K) it was 1.4326 ± 0.0024.
With `COc1ccccc1` [anisole], the mass density in data set [1] (298.15 K) is given as 988.9 ± 2 kg/m3; in data set [1] (303.15 K), 984.1 ± 2.1 kg/m3; in data set [1] (308.15 K), 979.4 ± 2.1 kg/m3. For the same compound, in data set [1] (298.15 K), the speed of sound was found to be 1410 ± 8 m/s. For the same compound, the viscosity in data set [1] (298.15 K) is 0.992 ± 0.032 mPa·s; in data set [1] (303.15 K), 0.919 ± 0.03 mPa·s and 0.918 ± 0.03 mPa·s; in data set [1] (308.15 K), 0.853 ± 0.028 mPa·s. The refractive index in data set [2] (298.15 K) is 1.5148 ± 0.0024; in data set [2] (303.15 K), 1.5124 ± 0.0024; in data set [2] (308.15 K), 1.5092 ± 0.0024.
In the case of `CCOC(=O)C(=O)OCC` [diethyl ethanedioate], the results for the mass density in data set [1] (298.15 K), in data set [1] (303.15 K) and in data set [1] (308.15 K) were 1072.3 ± 2.2 kg/m3, 1066.6 ± 2.3 kg/m3 and 1060.7 ± 2.4 kg/m3, respectively. In data set [1] (298.15 K), the speed of sound is 1267 ± 7 m/s. The viscosity in data set [1] (298.15 K) is on record as 1.844 ± 0.056 mPa·s; in data set [1] (303.15 K), 1.659 ± 0.051 mPa·s; in data set [1] (308.15 K), 1.508 ± 0.046 mPa·s. Further, the refractive index in data set [2] (298.15 K) was found to be 1.4084 ± 0.0024; in data set [2] (303.15 K), 1.4061 ± 0.0024; in data set [2] (308.15 K), 1.4039 ± 0.0024.
In the case of `C[S+](C)[O-]` [dimethyl sulfoxide], in data set [1] (298.15 K), the mass density was determined as 1095.4 ± 2.3 kg/m3, the speed of sound worked out at 1493 ± 8 m/s and the viscosity amounted to 1.984 ± 0.06 mPa·s. Also, in data set [1] (303.15 K), the mass density was found to be 1090.8 ± 2.3 kg/m3 and the viscosity was determined as 1.801 ± 0.055 mPa·s. Also, in data set [1] (308.15 K), the mass density worked out at 1086.2 ± 2.4 kg/m3 and the viscosity was determined as 1.651 ± 0.05 mPa·s. Also, in data set [2] (298.15 K), the refractive index is 1.4768 ± 0.0064.
With `CN(C)C=O` [dimethylformamide], the mass density in data set [1] (298.15 K) is given as 943.9 ± 4 kg/m3; in data set [1] (303.15 K) it was 939.5 ± 4.1 kg/m3; in data set [1] (308.15 K), 935 ± 4.1 kg/m3. The speed of sound in data set [1] (298.15 K) was 1462 ± 8 m/s. In addition, the values for the viscosity in data set [1] (298.15 K), in data set [1] (303.15 K) and in data set [1] (308.15 K) were 0.801 ± 0.026 mPa·s, 0.754 ± 0.025 mPa·s and 0.711 ± 0.024 mPa·s, respectively. In addition, the refractive index worked out at 1.4288 ± 0.0024 in data set [2] (298.15 K), 1.4264 ± 0.0024 in data set [2] (303.15 K) and 1.4238 ± 0.0024 in data set [2] (308.15 K).
For the compound `ClC(Cl)=C(Cl)Cl` [tetrachloroethene], the mass density in data set [1] (298.15 K) came out at 1614.7 ± 3.5 kg/m3; in data set [1] (303.15 K), 1606.9 ± 3.6 kg/m3; in data set [1] (308.15 K), 1599 ± 3.6 kg/m3. Besides, the speed of sound in data set [1] (298.15 K) came out at 1038 ± 6 m/s. In addition, the viscosity in data set [1] (298.15 K) worked out at 0.861 ± 0.028 mPa·s; in data set [1] (303.15 K), 0.817 ± 0.027 mPa·s; in data set [1] (308.15 K) it was 0.782 ± 0.026 mPa·s. Also, the refractive index in data set [2] (298.15 K) turned out to be 1.5036 ± 0.0024; in data set [2] (303.15 K), 1.501 ± 0.0024; in data set [2] (308.15 K) it was 1.498 ± 0.0024.

One may read the mass density as mass per unit of volume. By speed of sound is commonly meant the propagation velocity of pressure waves in the medium. A word on the viscosity: it is the resistance of a fluid to flow. Broadly, the refractive index is the speed of light in vacuum divided by its phase velocity in the sample.
